Values joined by “and” are separate entries in the source; they are usually repeats but may differ in a detail not shown here. Equal entries are not always repeated.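 In this assay, cells in 96-well plates receive the compound at five concentrations for 48 hours. Endpoints are linearly interpolated between the surrounding concentrations. Here, GI50 denotes the concentration required for 50% inhibition of growth. Definition used: TGI = concentration required for complete inhibition of growth.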
Experiments:
Assay in all cases: NCI anticancer screen, dose series, 48 h
ACHN renal = test system: ACHN renal
COLO 205 colon = test system: COLO 205 colon
HCT-116 colon = test system: HCT-116 colon
HOP-62 NSCLC = test system: HOP-62 NSCLC
IGROV1 ovarian = test system: IGROV1 ovarian
MDA-MB-231 breast = test system: MDA-MB-231 breast
NCI-H226 lung = test system: NCI-H226 lung
RPMI-8226 leukemia = test system: RPMI-8226 leukemia
SF-268 CNS = test system: SF-268 CNS
UACC-62 melanoma = test system: UACC-62 melanoma

| Structure (SMILES) | GI50 (ACHN renal) | TGI (ACHN renal) | GI50 (COLO 205 colon) [µM] | TGI (COLO 205 colon) | GI50 (HCT-116 colon) [µM] | TGI (HCT-116 colon) | GI50 (HOP-62 NSCLC) [µM] | TGI (HOP-62 NSCLC) | GI50 (IGROV1 ovarian) [µM] | TGI (IGROV1 ovarian) | GI50 (MDA-MB-231 breast) | TGI (MDA-MB-231 breast) | GI50 (NCI-H226 lung) [µM] | TGI (NCI-H226 lung) | GI50 (RPMI-8226 leukemia) | TGI (RPMI-8226 leukemia) | GI50 (SF-268 CNS) [µM] | TGI (SF-268 CNS) | GI50 (UACC-62 melanoma) | TGI (UACC-62 melanoma) |
| --- | --- | --- | --- | --- | --- | --- | --- | --- | --- | --- | --- | --- | --- | --- | --- | --- | --- | --- | --- | --- |
| O=C(CI)NC(=O)NC(=O)NCc1ccccc1 | 1.95 µM | 3.76 µM | 2.13 | 4.64 µM | 3.39 | 12.6 µM | 18.5 | 42 µM | 2.56 | 6.83 µM | 3.9 µM | 15.7 µM | 4.53 | 20.4 µM | 3.2 µM | 9.71 µM | 4.4 | 21.6 µM | 3.82 µM | 14.6 µM |
| C/C(=N\NC(=S)N1CCC1)c1ccccn1 | 0.00656 µM | 34.6 µM | 0.00486 | > 100 µM | 0.00278 | 52.2 µM | 0.0223 | > 33.9 µM | 0.00798 | 22.7 µM |  | > 100 µM | 0.0117 | 3.48 µM | 0.00499 µM | > 63.5 µM | 0.00557 | > 100 µM |  | 7.36 µM |
| COc1ccc(-c2cnc(-c3ccncc3-c3cccc(OC)c3)o2)cc1 | 0.138 µM | 14.7 µM | 0.0375 | 1.23 µM | 0.0375 | 11.8 µM | 0.0531 | 23.8 µM | 0.0754 | 18.4 µM | 0.0591 µM | 19.3 µM | 0.153 | 15.6 µM | 0.0387 µM | 5.75 µM | 0.0783 | 16.9 µM | 0.0508 µM | 15.5 µM |
| CN(C)CCCOc1ccc(NC2=C(Cl)C(=O)C(Nc3ccc(OCCCN(C)C)cc3)=C(Cl)C2=O)cc1 | 1.66 µM | 3.02 µM | 0.239 | 0.589 µM | 0.183 | 0.368 µM | 1.83 | 3.31 µM | 0.544 | 1.11 µM | 0.656 µM | 1.49 µM | 1.92 | 3.83 µM | 2.01 µM | 5.22 µM | 1.56 | 3.17 µM | 1.61 µM | 3.09 µM |
| O=[N+]([O-])/C=C/c1ccc2ccccc2c1 |  | 4.17 µM |  | 5.97 µM |  |  |  | > 51.5 µM |  | > 21.8 µM |  | 13.4 µM |  | 21.3 µM |  | > 100 µM |  | > 35.6 µM |  | 32.8 µM |
| CCN(CC)CCNc1n[n+]([O-])c2cc([N+](=O)[O-])ccc2[n+]1[O-] | 0.401 µM and 0.212 µM and 0.187 µM | 3.93 µM and 2.06 µM and 1.92 µM |  | 2.5 µM and 1.74 µM and 2.12 µM |  | 2.79 µM and 2.39 µM and 2.3 µM |  | 2.2 µM and 1.2 µM and 1.54 µM |  | 1.83 µM and 0.999 µM and 0.897 µM | 1.76 µM and 0.425 µM and 0.975 µM | 6.33 µM and 3.15 µM and 4.26 µM |  | 8.82 µM and 7.74 µM and 7.8 µM | 0.27 µM and 0.285 µM and 0.122 µM | 1.77 µM and 1.72 µM and 1.02 µM |  | 8.56 µM and 4.92 µM and 5.23 µM | 0.532 µM and 0.309 µM and 0.244 µM | 2.11 µM and 1.56 µM and 1.5 µM |
| NC1=NC(c2ccccc2Cl)c2c(n[nH]c2N)N1 (centres undefined) | 34.6 µM | > 100 µM | 23.9 | > 100 µM | 7.77 | > 100 µM | 80.1 | > 100 µM | 9.48 | > 100 µM | 5.95 µM | > 100 µM | 38.4 | > 100 µM | 42.9 µM | > 100 µM | 26.9 | > 100 µM | 13.5 µM | > 100 µM |
| Cc1ccc(C(=O)Nc2ccc(Oc3cc4cnn(C)c4cc3-c3cn[nH]c3)c(F)c2)c(=O)n1-c1ccc(F)cc1 | 2.9 µM | > 100 µM | 5.36 | > 100 µM | 6.31 | > 100 µM | > 37.9 | > 100 µM | > 100 | > 100 µM | 10.2 µM | > 78.1 µM | 2.16 | > 100 µM | > 48 µM | > 100 µM | 7.21 | > 100 µM | 2.08 µM | > 100 µM |
| CN(C)C1C(=O)C(C(N)=O)=C(O)C2(O)C(=O)C3=C(O)c4c(O)cccc4C(C)(O)C3CC12.[Cl][Sb]([Cl])[Cl] (centres undefined) | 4.75 µM | 18.7 µM | 2.94 | 9.17 µM | 3.33 | 12.2 µM | 4.66 | 15.5 µM | 2.96 | 8.5 µM | 4.3 µM | 15.3 µM | 3.33 | 22 µM | 2.41 µM | 5.85 µM |  |  | 2.55 µM | 7.45 µM |
| S=C(Sc1ccc(Cl)cc1)Sc1ccc(Cl)cc1 | 3.23 µM | 11 µM | 2.29 | 5.5 µM | 1.82 | 3.53 µM | 3.39 | 7.58 µM | 1.81 | 3.47 µM | 2.19 µM | 4.36 µM | 2.1 | 4.84 µM | 1.09 µM | 3 µM | 2.1 | 6.6 µM | 3.15 µM | 10.6 µM |
| C#COc1cccc(Nc2ncnc3cc(NC(=O)[C@@H](C)Cl)ccc23)c1 | 18.9 µM | > 62.5 µM | 5.3 | > 62.5 µM | 2.98 | > 62.5 µM | 8.18 | > 62.5 µM | 5.29 | > 62.5 µM | 17.2 µM | > 62.5 µM | 50.1 | > 62.5 µM | 13.8 µM | > 62.5 µM | 16.9 | > 62.5 µM | 5.48 µM | > 62.5 µM |
| Cc1ccc2ccc3c4ccccc4ccc3c2c1 | 31.9 µM | > 100 µM | 18 | 32.6 µM | 31.2 | > 100 µM | 38 | > 100 µM | 20 | 94.8 µM | 17.4 µM | 47.9 µM | 30.3 | > 100 µM | 21 µM | 59.2 µM | 32.1 | > 100 µM | 21.8 µM | > 100 µM |
| Nc1ncnc2c1c(-c1ccc(Oc3ccccc3)cc1)nn2CC1SSCC1O (centres undefined) | 4.27 µM | 14.9 µM | 1.25 | 5.5 µM | 0.59 | 4.65 µM | 3.6 | 11.1 µM | 2.44 | 8.31 µM | 5.36 µM | 16.8 µM | 3.7 | 9.91 µM | 5.05 µM | 21.3 µM | 0.126 | 7.01 µM | 0.63 µM | 1.33 µM |

Source: PubChem BioAssay (NCI)
